Nc1cccc(C(=O)O)c1
solubility (mole fraction)
Details	283.15 K	288.15 K	293.15 K	298.15 K	303.15 K	308.15 K	313.15 K	318.15 K	323.15 K
in 1,4-dioxane	–	0.0319	0.035	0.0394	0.042	0.0469	0.0549	0.0627	0.0709
in acetone	0.0289	0.0295	0.0304	0.0325	0.0375	0.0414	0.0455	0.052	0.0601
in acetonitrile	0.00192	0.00225	0.00264	0.00313	0.00358	0.00452	0.00561	0.00664	0.00765
in ethanol	0.00821	0.00955	0.0107	0.0117	0.0137	0.0154	0.0182	0.0218	0.0241
in isobutanol	0.00506	0.00542	0.00599	0.00683	0.00796	0.00946	0.0113	0.0131	0.0158
in isopropanol	0.00638	0.00712	0.00801	0.00943	0.0112	0.0135	0.0165	0.0204	0.023
in isopropyl acetate	0.00459	0.00495	0.00526	0.00591	0.00674	0.00765	0.00917	0.0113	0.0135
in methanol	0.012	0.0128	0.0139	0.0145	0.0166	0.0187	0.0219	0.0254	0.0296
in methyl acetate	0.00731	0.00776	0.00841	0.00918	0.0108	0.0128	0.0149	0.0173	0.0203
in n-butanol	0.00532	0.00595	0.00682	0.00768	0.00934	0.0117	0.0134	0.0156	0.0175
in n-propanol	0.00568	0.00675	0.00804	0.00911	0.0107	0.0126	0.014	0.016	0.019
in water	0.000506	0.000628	0.000725	0.000804	0.000976	0.00119	0.00135	0.00153	0.00184
